Assay [1] relates to Ramos cells. Briefly: Ramos proliferation assay (XTT). Type of assay: cell-based. The conditions noted are these: Homo sapiens, 72 hrs; for inhibition at 30 µM: read-out: Maximum % Inhibition at 30 μM; for IC50: XTT. The source says: Cell proliferation assay is a sensitive method for quantification of viable cells in cytotoxicity or proliferation assay. The XTT (2,3-bis[2-Methoxy-4-nitro-5-sulfophenyl]-2 H-tetrazolium-5-carboxyanilide inner salt) system is a means of measuring the activity of living cells via mitochondrial dehydrogenases. Mitochondrial dehydrogenases of viable cells cleave the tetrazolium ring of XTT, yielding orange formazon crystals which are soluble in aqueous solutions. The XTT solution is potentiated by the addition of an electron coupling agent, phenazine methosulphate (PMS) to the reaction. The resulting orange colour is spectrophotometrically measured at 450 nm. An increase or decrease in cell numbers results in a concomitant change in the amount of formazon formed, indicating the degree of cytotoxicity caused by the test material.
Dissolve 17.7 g IMDM (Iscove's Modified Dulbecco's Medium) powder, 1.5 g sodium bicarbonate pH 7.2-7.4 in 1 L MiliQ water, add 1% Pencilin/ Streptomycin and 10% FBS.
Dissolve 10.6 g Ham's F12 powder, 1.5 g sodium bicarbonate pH 7.2-7.4 in 1 L MiliQ water, add 1% Penicillin/Streptomycin. DMSO used as vehicle.
Ramos cells were re-suspended to a density of 1×10^5 cells/ ml in complete IMDM medium. 95 μL of this cell suspension was added to the 96-well plate to seed ˜10,000 cells per well. The plates were incubated at 37° C. under a humidified atmosphere of 5% CO2 for ˜1 hour before compound addition.
Test compounds (Refer to Table 1) were dissolved in 100% DMSO to generate a 2/6/10/20 mM stock solution. A 200× concentration of the required final concentrations was prepared in DMSO. 10 μL of each concentration (200×) was then diluted in 90 μL of serum-free Ham's F12 medium to get an intermediate concentration of 20× in medium. The DMSO concentration in this step is 10% (Intermediate dilution). 5 μL of each intermediate dilution was then added in triplicates in the previously seeded 96-well plate. The final DMSO concentration was 0.5% in the experimental wells. Cells treated with 0.5% DMSO served as positive control. 100 μL, of complete IMDM medium served as media blank for data analysis. 200 μL, of 1× PBS was added in all corner wells of the assay plate. Plates were then incubated for 72 hrs in an incubator with 5% CO2 at 37° C.
On termination day, 100 μl of XTT solution (1 mg/ml XTT supplemented with 25 μM PMS in Ham's F12 medium) was added to each well. Plates were incubated for 2 hrs. The amount of formazon produced was determined by reading the absorbance of the plate using VICTOR X5 multilabel plate reader at wavelength of 450 nm. The IC50 values were determined as concentrations that reduced cell viability by 50% and the curve was plotted with GraphPad Prism 6.0.
Percent (%) Inhibition was calculated by normalizing DMSO control values to 100% using the formula: % Inhibition=[…](Abs450test compound−blank)/(Abs450positive control−blank)*100
Test compound contains cells, test compound, IMDM medium and 0.5% DMSO
Positive control contains cells, IMDM medium and 0.5% DMSO
Blank contains IMDM medium
On the technique in general: Tetrazolium assays rely on reduction of a dye to a coloured formazan, in cell work by metabolically active cells.

For assay [2], the target named is DHODH (Homo sapiens (Human), UniProt Q02127). Nature of the assay: DHODH activity assay (coupled enzyme assay, DCIP reduction). Type of assay: biochemical. Conditions: read-out: DHODH inhibition activity, IC50 group. As to the method:
The DHODH activity assay is a coupled enzyme assay in which oxidation of DHO and subsequent reduction of ubiquinone are stoichiometrically equivalent to the reduction of DCIP ([…]). The reduction of DCIP is accompanied by a loss of absorbance at 610 nm.
Buffer Preparation: 50 mM tris HCl, 150 mM KCl, and pH 8.0, 0.8% triton.
L-Dihydroorotic acid stock solution of 20 mM in buffer.
2, 6-Dichloroindophenol Sodium salt hydrate stock solution of 20 mM in buffer.
Decylubiquinone stock solution of 20 mM in buffer.
5 μL of Dimethyl sulfoxide or a compound of formula (I) in DMSO solution was added to the wells of a 96 well plate. Compounds of formula (I) were measured at 10 μM.
Protein along with buffer was added, so that the total volume including the DMSO was 87 μL. Compound and protein were incubated for half an hour at room temperature after mixing. 5 μL of 20 mM solution of L-Dihydroorotic acid, 5 μL of 2 mM solution of Decylubiquinone and 3 μL of 2 mM solution of 2, 6-Dichloroindophenol sodium salt hydrate were added to the above solution (total assay volume 100 μL). The mixture was stirred for 2 min and absorbance was recorded at every 10 min at 610 nanometers.
Percent inhibition is calculated as follows: […]
A 2 mM DMSO stock solution of the selected trisubstituted benzoimidazole and benzotriazole derivatives of formula (I) of the present invention to be examined was prepared. Subsequent ⅓rd dilutions were made.
5 μL of each stock of compound of formula (I) was used for each 100 μL assay. Therefore, 5 μL of the 2 mM stock provided 100 μL of 100 μM solution of compound of formula (I), when made up with buffer, protein and substrate. See also: Ulrich et al. (2001) Eur. J. Biochem.268, 1861-1868.

DHODH, sequence (Q02127 whole entry): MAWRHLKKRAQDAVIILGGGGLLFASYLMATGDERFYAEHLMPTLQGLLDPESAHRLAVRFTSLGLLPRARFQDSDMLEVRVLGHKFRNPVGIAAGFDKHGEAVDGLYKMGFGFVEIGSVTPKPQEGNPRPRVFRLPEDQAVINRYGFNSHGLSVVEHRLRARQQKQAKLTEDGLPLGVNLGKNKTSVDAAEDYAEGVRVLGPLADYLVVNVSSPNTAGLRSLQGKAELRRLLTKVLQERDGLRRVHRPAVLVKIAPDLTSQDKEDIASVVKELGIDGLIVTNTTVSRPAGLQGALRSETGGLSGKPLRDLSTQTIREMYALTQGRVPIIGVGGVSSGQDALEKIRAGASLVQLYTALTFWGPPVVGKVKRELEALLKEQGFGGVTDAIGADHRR

The inhibition is the drop in the measured response relative to a control, in per cent. The term IC50 denotes the concentration that inhibits the measured activity by half. In the case of `Cc1ccccc1-c1ccc(-c2cc(C(N)=O)c3c(c2)nnn3C)cc1` [Compound 2, 1-methyl-5-(2′-methyl-[1,1′-biphenyl]-4-yl)-1H-benzo[d] [1,2,3]triazole-7-carboxamide], the inhibition at 30 µM in assay [1] was found to be 95%. The figures for the IC50 in assay [1] and in assay [2] were 1090 nM and < 100 nM, respectively.

`Cn1nnc2cc(-c3ccc(-c4ccccc4)cc3)cc(C(=O)O)c21` [Compound 3, 5-([1,1′-biphenyl]-4-yl)-1-methyl-1H-benzo[d][1,2,3]triazole-7-carboxylic acid]: in assay [1], the inhibition at 30 µM is 113% and the IC50 was determined as 524 nM. Besides, the IC50 in assay [2] lay in the range of 101 to 1000 nM.

Turning to `Cn1nc2cc(-c3ccc(-c4ccccc4)cc3)cc(C(=O)O)c2n1` [Compound 4, 6-([1,1′-biphenyl]-4-yl)-2-methyl-2H-benzo[d][1,2,3]triazole-4-carboxylic acid], in assay [1], the inhibition at 30 µM worked out at 107% and the IC50 amounted to 1450 nM. For the same compound, the IC50 in assay [2] was 101 to 1000 nM.

On to `Cc1ccccc1-c1ccc(-c2cc(C(=O)O)c3nn(C)nc3c2)cc1` [Compound 8, 2-methyl-6-(2′-methyl-[1,1′-biphenyl]-4-yl)-2H-benzo[d][1,2,3]triazole-4-carboxylic acid], for which, in assay [1], the inhibition at 30 µM was found to be 103% and the IC50 is 154 nM. Also, the IC50 in assay [2] was < 100 nM.

As to `Cc1ccccc1-c1ccc(-c2cc(C(N)=O)c3nn(C)nc3c2)cc1` [Compound 11, 2-methyl-6-(2′-methyl-[1,1′-biphenyl]-4-yl)-2H-benzo[d][1,2,3]triazole-4-carboxamide], in assay [1] (10 μM, read-out: Maximum % Inhibition (at 10 μM)), the inhibition at 10 µM was 67%. Further, the IC50 in assay [2] was 101 to 1000 nM.

On to `Cc1ccc(C)n1-c1ccc(-c2cc(C(=O)O)c3c(c2)nnn3C)cc1` [Compound 12, 5-(4-(2,5-dimethyl-1H-pyrrol-1-yl)phenyl)-1-methyl-1H-benzo[d][1,2,3]triazole-7-carboxylic acid], for which, in assay [1], the inhibition at 30 µM is 103% and the IC50 stood at 362 nM. Further, the IC50 in assay [2] was < 100 nM.

For `Cc1ccc(C)n1-c1ccc(-c2cc(C(=O)O)c3nn(C)nc3c2)cc1` [Compound 13, 6-(4-(2,5-dimethyl-1H-pyrrol-1-yl)phenyl)-2-methyl-2H-benzo[d][1,2,3]triazole-4-carboxylic acid], the inhibition at 30 µM in assay [1] came to 100%. Further, the IC50 was 3880 nM in assay [1] and 101 to 1000 nM in assay [2].

Take `Cn1nnc2cc(-c3ccc(-c4cccc(CN5CCOCC5)c4)cc3)cc(C(=O)O)c21` [Compound 15, 1-methyl-5-(3′-(morpholinomethyl)-[1,1′-biphenyl]-4-yl)-1H-benzo[d][1,2,3]triazole-7-carboxylic acid]: in assay [1], the inhibition at 30 µM is 96% and the IC50 came to 8410 nM. Also, in assay [2], the IC50 is > 1000 nM.

Regarding `Cn1nnc2cc(-c3c(F)c(F)c(-c4cccc(CN5CCOCC5)c4)c(F)c3F)cc(C(=O)O)c21` [Compound 33, 1-methyl-5-(2,3,5,6-tetrafluoro-3′-(morpholinomethyl)-[1,1′-biphenyl]-4-yl)-1H-benzo[d][1,2,3]triazole-7-carboxylic acid], the IC50 in assay [2] was in the range of 101 to 1000 nM.

For `CN1CCN(Cc2cccc(-c3c(F)c(F)c(-c4cc(C(=O)O)c5c(c4)nnn5C)c(F)c3F)c2)CC1` [Compound 35, 1-methyl-5-(2,3,5,6-tetrafluoro-3′-((4-methylpiperazin-1-yl)methyl)-[1,1′-biphenyl]-4-yl)-1H-benzo[d][1,2,3]triazole-7-carboxylic acid], the IC50 in assay [2] is > 1000 nM.

Turning to `CC(C)NCc1cccc(-c2c(F)c(F)c(-c3cc(C(=O)O)c4c(c3)nnn4C)c(F)c2F)c1` [Compound 36, 1-methyl-5-(2,3,5,6-tetrafluoro-3′-((isopropylamino)methyl)-[1,1′-biphenyl]-4-yl)-1H-benzo[d][1,2,3]triazole-7-carboxylic acid], the IC50 in assay [2] was 101 to 1000 nM.

With `CNCc1cccc(-c2c(F)c(F)c(-c3cc(C(=O)O)c4c(c3)nnn4C)c(F)c2F)c1` [Compound 37, 1-methyl-5-(2,3,5,6-tetrafluoro-3′-((methylamino)methyl)-[1,1′-biphenyl]-4-yl)-1H-benzo[d][1,2,3]triazole-7-carboxylic acid], the IC50 in assay [2] was > 1000 nM.
